Data: patent publication US8987193B2, “Nisin derivatives and the use thereof” (University College Cork—National University of Ireland, Cork, priority 2008, dated 2015)
Ends that are not written are not given here.

Tests used:
Experiment in all cases: Deferred antagonism assay
Assay type in all cases: cell-based
Listeria innocua FH2117 = settings: nisin strain
Procedure: (§1) Deferred antagonism assays were performed by replicating strains on GM17 or GM17 x-gal agar plates and allowing them to grow overnight before overlaying with either GM17/BHI/TS/MH agar (0.75% w/v agar) seeded with the appropriate indicator strain. Zone size was calculated as the diameter of the zone of clearing minus the diameter of bacterial growth (5 mm) For higher throughput screening of N20PXX, XM21VX, XXK22T and XXX banks deferred antagonism assays were performed by replicating strains using a 96 pin replicator (Boekel) or spotting 5 μl of a fresh overnight culture on GM17 agar plates and allowing them to grow overnight. […] Additional sets of indicators were employed to further assess/reassess the bioactivity of a number of strains. […] For well-diffusion assays molten agar was cooled to 48° C. and seeded with the appropriate indicator strain. The inoculated medium was rapidly transferred into sterile Petri plates in 50 ml volumes, allowed to solidify and dried. Wells (4.6 mm in diameter) were then made in the seeded plates. Purified nisin and mutant nisins were resuspended in 0.005% acetic acid, serially diluted, 50 μl volumes were dispensed into the aforementioned wells and the plates incubated at 37° C. overnight. Bioactivity was expressed as arbitrary units/ml (AU/ml) and calculated as the reciprocal of the highest dilution that gave a definite zone multiplied by the conversion factor (i.e. 20 when 50 μl was used) (Ryan et al., 1996).

[1] = test system: Listeria monocytogenes 33007; settings: nisin strain; L. monocytogenes 33007
Procedure: as §1

[2] = test system: Listeria monocytogenes 33116; settings: nisin strain; L. monocytogenes 33116
Procedure: as §1

[3] = test system: Listeria monocytogenes 33176; settings: nisin strain; L. monocytogenes 33176
Procedure: as §1

[4] = test system: Listeria monocytogenes 33186; settings: nisin strain; L. monocytogenes 33186
Procedure: as §1

[5] = test system: Listeria monocytogenes 33225; settings: nisin strain; L. monocytogenes 33225
Procedure: as §1

[6] = test system: Listeria monocytogenes 33411; settings: nisin strain; L. monocytogenes 33411
Procedure: as §1

[7] = test system: Listeria monocytogenes 33423; settings: nisin strain; L. monocytogenes 33423
Procedure: as §1

[8] = test system: Listeria monocytogenes CD83; settings: nisin strain; L. monocytogenes CD83
Procedure: as §1

[9] = test system: Listeria monocytogenes LO28; settings: nisin strain; L. monocytogenes LO28
Procedure: as §1

[10] = test system: Listeria monocytogenes NRRLB 33038; settings: nisin strain; L. monocytogenes NRRLB 33038
Procedure: as §1

[11] = test system: Listeria monocytogenes SLCC 4949; settings: nisin strain; L. monocytogenes SLCC 4949
Procedure: as §1

Listeria innocua CLIP = test system: Listeria innocua CLIP; design: key: −, no inhibition; (+), clear zone directly above the colony; +, 1-5 mm zone; ++, 6-10 mm zone; +++, <10 mm zone; settings: nisin strain
Procedure: as §1

[12] = test system: Listeria monocytogenes 33008; design: key: −, no inhibition; (+), clear zone directly above the colony; +, 1-5 mm zone; ++, 6-10 mm zone; +++, <10 mm zone; settings: nisin strain; L. monocytogenes 33008
Procedure: as §1

[13] = test system: Listeria monocytogenes 33015; design: key: −, no inhibition; (+), clear zone directly above the colony; +, 1-5 mm zone; ++, 6-10 mm zone; +++, <10 mm zone; settings: nisin strain; L. monocytogenes 33015
Procedure: as §1

[14] = test system: Listeria monocytogenes 33028; design: key: −, no inhibition; (+), clear zone directly above the colony; +, 1-5 mm zone; ++, 6-10 mm zone; +++, <10 mm zone; settings: nisin strain; L. monocytogenes 33028
Procedure: as §1

[15] = test system: Listeria monocytogenes 33068; design: key: −, no inhibition; (+), clear zone directly above the colony; +, 1-5 mm zone; ++, 6-10 mm zone; +++, <10 mm zone; settings: nisin strain; L. monocytogenes 33068
Procedure: as §1

[16] = test system: Listeria monocytogenes 33083; design: key: −, no inhibition; (+), clear zone directly above the colony; +, 1-5 mm zone; ++, 6-10 mm zone; +++, <10 mm zone; settings: nisin strain; L. monocytogenes 33083
Procedure: as §1

[17] = test system: Listeria monocytogenes 33115; design: key: −, no inhibition; (+), clear zone directly above the colony; +, 1-5 mm zone; ++, 6-10 mm zone; +++, <10 mm zone; settings: nisin strain; L. monocytogenes 33115
Procedure: as §1

[18] = test system: Listeria monocytogenes 33226; design: key: −, no inhibition; (+), clear zone directly above the colony; +, 1-5 mm zone; ++, 6-10 mm zone; +++, <10 mm zone; settings: nisin strain; L. monocytogenes 33226
Procedure: as §1

[19] = test system: Listeria monocytogenes 33233; design: key: −, no inhibition; (+), clear zone directly above the colony; +, 1-5 mm zone; ++, 6-10 mm zone; +++, <10 mm zone; settings: nisin strain; L. monocytogenes 33233
Procedure: as §1

[20] = test system: Listeria monocytogenes F6854; design: key: −, no inhibition; (+), clear zone directly above the colony; +, 1-5 mm zone; ++, 6-10 mm zone; +++, <10 mm zone; settings: nisin strain; L. monocytogenes F6854
Procedure: as §1

[21] = test system: Listeria monocytogenes N3008; design: key: −, no inhibition; (+), clear zone directly above the colony; +, 1-5 mm zone; ++, 6-10 mm zone; +++, <10 mm zone; settings: nisin strain; L. monocytogenes N3008
Procedure: as §1

[22] = test system: Listeria monocytogenes SLCC 7194; design: key: −, no inhibition; (+), clear zone directly above the colony; +, 1-5 mm zone; ++, 6-10 mm zone; +++, <10 mm zone; settings: nisin strain; L. monocytogenes SLCC 7194
Procedure: as §1

Substance | Activity score (zone) (Listeria innocua FH2117) | Activity score (zone) [1] | Activity score (zone) [2] | Activity score (zone) [3] | Activity score (zone) [4] | Activity score (zone) [5] | Activity score (zone) [6] | Activity score (zone) [7] | Activity score (zone) [8] | Activity score (zone) [9] | Activity score (zone) [10] | Activity score (zone) [11] | Activity score (zone) (Listeria innocua CLIP) | Activity score (zone) [12] | Activity score (zone) [13] | Activity score (zone) [14] | Activity score (zone) [15] | Activity score (zone) [16] | Activity score (zone) [17] | Activity score (zone) [18] | further results
NisinA K22A (ITSISLCTPGCKTGALMGCNMATATCHCSIHVSK; not fully specified; also: lantibiotic: lanthionine rings and dehydro residues not placed; UniProt P13068 24-57, looked up, variant K22A) [nisin A derivative, hinge substitution K22A] | + (+, 1-5 mm zone) | + (+, 1-5 mm zone) | + (+, 1-5 mm zone) | + (+, 1-5 mm zone) | + (+, 1-5 mm zone) | + (+, 1-5 mm zone) | + (+, 1-5 mm zone) | + (+, 1-5 mm zone) | + (+, 1-5 mm zone) | + (+, 1-5 mm zone) | + (+, 1-5 mm zone) | + (+, 1-5 mm zone) | + (+, 1-5 mm zone) | − | + (+, 1-5 mm zone) | + (+, 1-5 mm zone) | − | + (+, 1-5 mm zone) | + (+, 1-5 mm zone) | + (+, 1-5 mm zone) | Activity score (zone) [19]: + (+, 1-5 mm zone); Activity score (zone) [20]: + (+, 1-5 mm zone); Activity score (zone) [21]: + (+, 1-5 mm zone); Activity score (zone) [22]: + (+, 1-5 mm zone)
NisinA M21S (ITSISLCTPGCKTGALMGCNSKTATCHCSIHVSK; not fully specified; also: lantibiotic nisin: dehydrated residues and thioether rings not placed; UniProt P13068 24-57, looked up, variant M21S) [nisin A derivative, hinge substitution M21S] | + (+, 1-5 mm zone) | ++ (++, 6-10 mm zone) | ++ (++, 6-10 mm zone) | ++ (++, 6-10 mm zone) | + (+, 1-5 mm zone) | ++ (++, 6-10 mm zone) | ++ (++, 6-10 mm zone) | + (+, 1-5 mm zone) | + (+, 1-5 mm zone) | +++ (+++, <10 mm zone) | ++ (++, 6-10 mm zone) | + (+, 1-5 mm zone) | + (+, 1-5 mm zone) | + (+, 1-5 mm zone) | + (+, 1-5 mm zone) | ++ (++, 6-10 mm zone) | + (+, 1-5 mm zone) | + (+, 1-5 mm zone) | (+) | + (+, 1-5 mm zone) | Activity score (zone) [19]: + (+, 1-5 mm zone); Activity score (zone) [20]: + (+, 1-5 mm zone); Activity score (zone) [21]: ++ (++, 6-10 mm zone); Activity score (zone) [22]: + (+, 1-5 mm zone)
NisinA M21I (ITSISLCTPGCKTGALMGCNIKTATCHCSIHVSK; not fully specified; also: lantibiotic: lanthionine rings and dehydro residues not placed; UniProt P13068 24-57, looked up, variant M21I) [nisin A derivative, hinge substitution M21I] | + (+, 1-5 mm zone) | ++ (++, 6-10 mm zone) | ++ (++, 6-10 mm zone) | + (+, 1-5 mm zone) | + (+, 1-5 mm zone) | + (+, 1-5 mm zone) | + (+, 1-5 mm zone) | + (+, 1-5 mm zone) | + (+, 1-5 mm zone) | ++ (++, 6-10 mm zone) | + (+, 1-5 mm zone) | + (+, 1-5 mm zone) | − | − | + (+, 1-5 mm zone) | + (+, 1-5 mm zone) | − | + (+, 1-5 mm zone) | − | + (+, 1-5 mm zone) | Activity score (zone) [19]: + (+, 1-5 mm zone); Activity score (zone) [20]: + (+, 1-5 mm zone); Activity score (zone) [21]: + (+, 1-5 mm zone); Activity score (zone) [22]: + (+, 1-5 mm zone)
NisinA M21G (ITSISLCTPGCKTGALMGCNGKTATCHCSIHVSK; not fully specified; also: lantibiotic: lanthionine rings and dehydro residues not placed; UniProt P13068 24-57, looked up, variant M21G) [nisin A derivative, hinge substitution M21G] | + (+, 1-5 mm zone) | + (+, 1-5 mm zone) | + (+, 1-5 mm zone) | + (+, 1-5 mm zone) | + (+, 1-5 mm zone) | + (+, 1-5 mm zone) | + (+, 1-5 mm zone) | + (+, 1-5 mm zone) | + (+, 1-5 mm zone) | + (+, 1-5 mm zone) | + (+, 1-5 mm zone) | + (+, 1-5 mm zone) | + (+, 1-5 mm zone) | − | − | − | − | − | − | − | Activity score (zone) [19]: −; Activity score (zone) [20]: −; Activity score (zone) [21]: −; Activity score (zone) [22]: −
